Reference: ChEMBL document CHEMBL1125667, “Receptor-based design of novel dihydrofolate reductase inhibitors: benzimidazole and indole derivatives” (J Med Chem, 1991)
Values belong to the compound of their own block, whether it stands above or below them.

How the values were obtained:
[1] = molecular target: T1, Dihydrofolate reductase (Rattus norvegicus) (UniProt Q920D2); experiment: Inhibitory activity against Dihydrofolate reductase obtained from rat liver
T1 sequence (whole entry): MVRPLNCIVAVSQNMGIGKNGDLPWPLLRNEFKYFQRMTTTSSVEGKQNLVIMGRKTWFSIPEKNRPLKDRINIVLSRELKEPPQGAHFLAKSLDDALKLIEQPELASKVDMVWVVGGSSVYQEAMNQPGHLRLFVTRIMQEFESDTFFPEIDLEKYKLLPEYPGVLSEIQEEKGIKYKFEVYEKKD

Dihydrofolate reductase = molecular target: T2, Dihydrofolate reductase (Escherichia coli, UniProt P0ABQ4); experiment: (§1) Inhibitory activity against Dihydrofolate reductase obtained from Escherichia coli; conditions: read-out: I50
T2 sequence (P0ABQ4 whole entry): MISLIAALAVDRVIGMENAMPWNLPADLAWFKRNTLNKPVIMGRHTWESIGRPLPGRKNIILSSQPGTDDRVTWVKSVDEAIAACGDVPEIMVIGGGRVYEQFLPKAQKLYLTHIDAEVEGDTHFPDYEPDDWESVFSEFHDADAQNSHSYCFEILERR

[2] = molecular target: T3, Dihydrofolate reductase (Escherichia coli) (UniProt P0ABQ4); experiment: as §1
T3 sequence (whole entry): T2 sequence (P0ABQ4 whole entry)

I28 [1]: 500 µM
IC50 (Dihydrofolate reductase): 100 µM
SMILES: Nc1cc2c(N)cc(Cc3ccccc3)cc2[nH]1

I5 [1]: 300 µM
I42 [2]: 300 µM
SMILES: Nc1nc2c(N)cc(Cc3ccccc3)cc2[nH]1

The next lines start with the compound.

SMILES: Nc1nc2c(N)cc(C(=O)c3ccccc3)cc2[nH]1
I16 [1]: 100 µM
I14 [2]: 100 µM

SMILES: Nc1nc2c(N)c3c(cc2[nH]1)C1(CC3)SCCS1
I14 [1]: 14 µM
I31 [2]: 140 µM

SMILES: Nc1nc2c(N)c3c(cc2[nH]1)CCC3
I7 [1]: 360 µM
I13 [2]: 360 µM
